Assay results taken from patent US10758534B2 (Vertex Pharmaceuticals Incorporated, priority 2014, dated 2020).

Molecular target: T1, F508del (Homo sapiens, UniProt P13569, DEL508-508)
T1 construct: expressed in transfected cells
Experiment: Protocol 1: membrane potential optical assay (FLIPR III, voltage sensing dye), identification of potentiator compounds
Type: cell-based
Conditions: Table 3, compounds of Table 1
Method in brief: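 NIH 3T3 fibroblasts stably expressing F508del were cultured at 27° C for 24 hrs for temperature correction, then treated with compounds or DMSO and loaded with a voltage-sensing redistribution dye. Forskolin added with a Cl⁻ gradient activated the channel; membrane-potential fluorescence on FLIPR III reported increased gating.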

T1 sequence (P13569 with tags, fused parts or gaps DEL508-508): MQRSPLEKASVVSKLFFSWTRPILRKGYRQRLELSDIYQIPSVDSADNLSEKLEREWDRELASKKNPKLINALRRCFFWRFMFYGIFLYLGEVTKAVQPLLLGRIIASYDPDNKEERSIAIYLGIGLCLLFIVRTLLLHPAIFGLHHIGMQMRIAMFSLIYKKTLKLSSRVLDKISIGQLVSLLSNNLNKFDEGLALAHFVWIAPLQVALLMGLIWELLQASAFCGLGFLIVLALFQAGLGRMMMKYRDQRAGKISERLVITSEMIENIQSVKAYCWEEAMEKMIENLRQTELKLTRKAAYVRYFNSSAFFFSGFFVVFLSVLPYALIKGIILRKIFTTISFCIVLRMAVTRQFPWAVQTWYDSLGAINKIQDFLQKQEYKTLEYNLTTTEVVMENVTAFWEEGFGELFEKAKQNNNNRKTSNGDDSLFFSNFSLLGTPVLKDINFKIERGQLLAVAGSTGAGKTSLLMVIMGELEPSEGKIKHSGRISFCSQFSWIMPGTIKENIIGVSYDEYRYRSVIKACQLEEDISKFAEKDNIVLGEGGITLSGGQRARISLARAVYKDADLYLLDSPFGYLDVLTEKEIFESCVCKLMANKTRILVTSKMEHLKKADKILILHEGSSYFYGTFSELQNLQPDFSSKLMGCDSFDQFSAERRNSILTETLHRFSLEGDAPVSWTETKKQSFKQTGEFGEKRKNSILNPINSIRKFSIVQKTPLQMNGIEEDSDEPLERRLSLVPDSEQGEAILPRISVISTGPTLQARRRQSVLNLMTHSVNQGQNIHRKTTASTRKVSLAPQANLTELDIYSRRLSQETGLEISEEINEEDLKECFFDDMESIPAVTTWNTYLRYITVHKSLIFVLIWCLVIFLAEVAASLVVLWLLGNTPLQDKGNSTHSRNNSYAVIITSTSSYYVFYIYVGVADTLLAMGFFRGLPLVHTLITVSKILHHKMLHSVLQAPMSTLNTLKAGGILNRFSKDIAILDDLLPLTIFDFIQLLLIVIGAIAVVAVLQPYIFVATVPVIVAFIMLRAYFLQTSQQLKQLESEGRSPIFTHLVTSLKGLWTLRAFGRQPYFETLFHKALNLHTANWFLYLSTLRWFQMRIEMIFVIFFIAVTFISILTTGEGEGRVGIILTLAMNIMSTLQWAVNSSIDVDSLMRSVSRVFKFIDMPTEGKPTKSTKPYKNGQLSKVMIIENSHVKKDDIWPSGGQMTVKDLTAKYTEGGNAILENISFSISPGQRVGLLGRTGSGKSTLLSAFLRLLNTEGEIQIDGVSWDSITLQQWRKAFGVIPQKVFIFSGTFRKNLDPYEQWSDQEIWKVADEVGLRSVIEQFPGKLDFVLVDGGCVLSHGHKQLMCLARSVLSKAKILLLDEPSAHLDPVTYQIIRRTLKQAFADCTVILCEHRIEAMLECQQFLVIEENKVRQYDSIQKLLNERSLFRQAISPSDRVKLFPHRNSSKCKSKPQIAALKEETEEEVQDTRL

Row | SMILES | EC30
1 | CC(C)COc1cc(F)cc(-c2ccc(C(=O)NS(=O)(=O)N3CC[C@H](N)C3)c(N3C[C@@H](C)CC3(C)C)n2)c1 [Compound 1557, N-[(3S)-3-aminopyrrolidin-1-yl]sulfonyl-6-(3-fluoro-5-isobutoxy-phenyl)-2-[(4S)-2,2,4-trimethylpyrrolidin-1-yl]pyridine-3-carboxamide] | +++ (“+++” means <3 uM)
2 | Cc1cc(C)c(Oc2nc(C3=CCC4(CC3)OCCO4)ccc2C(=O)NS(=O)(=O)c2cccc(N)n2)c(C)c1 [Compound 1558, N-[(6-amino-2-pyridyl)sulfonyl]-6-(1,4-dioxaspiro[4.5]dec-8-en-8-yl)-2-(2,4,6-trimethylphenoxy)pyridine-3-carboxamide] | ++ (“++” means between 3 uM and 10 uM)
3 | CC(C)COc1cc(F)cc(-c2ccc(C(=O)NS(=O)(=O)c3cccc(N)n3)c(OC3CC(OCc4ccccc4)C3)n2)c1 (stereo not shown) [Compound 1559, N-[(6-amino-2-pyridyl)sulfonyl]-2-(3-benzyloxycyclobutoxy)-6-(3-fluoro-5-isobutoxy-phenyl)pyridine-3-carboxamide] | +++ (“+++” means <3 uM)
4 | CC(C)COc1cc(F)cc(-c2ccc(C(=O)NS(=O)(=O)N3CCC(S(C)(=O)=O)C3)c(N3C[C@@H](C)CC3(C)C)n2)c1 (stereo partly drawn) [Compound 1560, 6-(3-fluoro-5-isobutoxy-phenyl)-N-(3-methylsulfonylpyrrolidin-1-yl)sulfonyl-2-[(4S)-2,2,4-trimethylpyrrolidin-1-yl]pyridine-3-carboxamide] | +++ (“+++” means <3 uM)
5 | CC(C)=Cc1cc(C(=O)NS(=O)(=O)c2cccc(N)n2)c(N2CC(C)CC2(C)C)nc1C(C)(C)C (stereo not shown) [Compound 1561, N-[(6-amino-2-pyridyl)sulfonyl]-6-tert-butyl-5-(2-methylprop-1-enyl)-2-(2,2,4-trimethylpyrrolidin-1-yl)pyridine-3-carboxamide] | +++ (“+++” means <3 uM)
6 | CCOc1cccc2c1CN(Cc1c(C)cc(C)cc1C)C2(C)C(=O)NS(=O)(=O)c1ccc(C(C)C)c(N)c1 (stereo not shown) [Compound 1562, N-(3-amino-4-isopropyl-phenyl)sulfonyl-4-ethoxy-1-methyl-2-[(2,4,6-trimethylphenyl)methyl]isoindoline-1-carboxamide] | +++ (“+++” means <3 uM)
7 | CC(C)COc1cc(F)cc(-c2ccc(C(=O)NS(=O)(=O)c3ccc(O)c(N)n3)c(N3C[C@@H](C)CC3(C)C)n2)c1 [Compound 1563, N-[(6-amino-5-hydroxy-2-pyridyl)sulfonyl]-6-(3-fluoro-5-isobutoxy-phenyl)-2-[(4S)-2,2,4-trimethylpyrrolidin-1-yl]pyridine-3-carboxamide] | +++ (“+++” means <3 uM)
8 | C[C@@H]1CN(c2nc(C#N)ccc2C(=O)NS(=O)(=O)c2cccc(N)n2)C(C)(C)C1 [Compound 1564, N-[(6-amino-2-pyridyl)sulfonyl]-6-cyano-2-[(4S)-2,2,4-trimethylpyrrolidin-1-yl]pyridine-3-carboxamide] | ++ (“++” means between 3 uM and 10 uM)
9 | CCOc1cccc2c1CN(Cc1ccc(Cl)nc1)C2(C)C(=O)NS(=O)(=O)c1cccc(N)n1 (stereo not shown) [Compound 1565, N-[(6-amino-2-pyridyl)sulfonyl]-2-[(6-chloro-3-pyridyl)methyl]-4-ethoxy-1-methyl-isoindoline-1-carboxamide] | + (“+” means greater than 10 uM)
10 | C[C@@H]1CN(c2nc(C(C)(C)C)c(/C=C/c3ccc(C(F)(F)F)cc3)cc2C(=O)NS(=O)(=O)c2cccc(N)n2)C(C)(C)C1 [Compound 1566, N-[(6-amino-2-pyridyl)sulfonyl]-6-tert-butyl-5-[(E)-2-[4-(trifluoromethyl)phenyl]vinyl]-2-[(4S)-2,2,4-trimethylpyrrolidin-1-yl]pyridine-3-carboxamide] | +++ (“+++” means <3 uM)
11 | CC(CO)COc1cc(F)cc(-c2ccc(C(=O)NS(=O)(=O)c3cccc(N)n3)c(N3C[C@@H](C)CC3(C)C)n2)c1 (stereo partly drawn) [Compound 1567, N-[(6-amino-2-pyridyl)sulfonyl]-6-[3-fluoro-5-(3-hydroxy-2-methyl-propoxy)phenyl]-2-[(4S)-2,2,4-trimethylpyrrolidin-1-yl]pyridine-3-carboxamide] | +++ (“+++” means <3 uM)
12 | Cc1cc(C)c(Cn2nc(C(C)(C)C)cc2C(=O)NS(=O)(=O)c2cn(C)cn2)c(C)c1 [Compound 1568, 5-tert-butyl-N-(1-methylimidazol-4-yl)sulfonyl-2-[(2,4,6-trimethylphenyl)methyl]pyrazole-3-carboxamide] | +++ (“+++” means <3 uM)
13 | CCOc1cc(-c2ccc(C(=O)NS(=O)(=O)c3cccc(N)n3)c(N3C[C@@H](C)CC3(C)C)n2)cc(C(F)(F)F)c1 [Compound 1569, N-[(6-amino-2-pyridyl)sulfonyl]-6-[3-ethoxy-5-(trifluoromethyl)phenyl]-2-[(4S)-2,2,4-trimethylpyrrolidin-1-yl]pyridine-3-carboxamide] | +++ (“+++” means <3 uM)
14 | CC(C)COc1cc(F)cc(-c2ccc(C(=O)NS(=O)(=O)c3cccc(N)n3)c(OCC3CCCCO3)n2)c1 (stereo not shown) [Compound 1570, N-[(6-amino-2-pyridyl)sulfonyl]-6-(3-fluoro-5-isobutoxy-phenyl)-2-(tetrahydropyran-2-ylmethoxy)pyridine-3-carboxamide] | +++ (“+++” means <3 uM)
15 | CC1CN(c2ncc(/C=C/C3CC3)cc2C(=O)NS(=O)(=O)c2cccc(N)n2)C(C)(C)C1 (stereo not shown) [Compound 1571, N-[(6-amino-2-pyridyl)sulfonyl]-5-[(E)-2-cyclopropylvinyl]-2-(2,2,4-trimethylpyrrolidin-1-yl)pyridine-3-carboxamide] | +++ (“+++” means <3 uM)
16 | Cc1cc(C)c2c(c1)CCN2c1nc(-c2cc(F)cc(OCC(C)C)c2)ccc1C(=O)NS(=O)(=O)c1cccc(N)n1 [Compound 1572, N-[(6-amino-2-pyridyl)sulfonyl]-2-(5,7-dimethylindolin-1-yl)-6-(3-fluoro-5-isobutoxy-phenyl)pyridine-3-carboxamide] | +++ (“+++” means <3 uM)
17 | CC(C)Oc1ccc(C(=O)NS(=O)(=O)c2cccc(N)n2)c(N2C[C@@H](C)CC2(C)C)n1 [Compound 1573, N-[(6-amino-2-pyridyl)sulfonyl]-6-isopropoxy-2-[(4S)-2,2,4-trimethylpyrrolidin-1-yl]pyridine-3-carboxamide] | +++ (“+++” means <3 uM)
18 | Cc1ccnc(C)c1Oc1nc(-c2cc(F)cc(OCC(C)C)c2)ccc1C(=O)NS(=O)(=O)c1cccc(N)n1 [Compound 1574, N-[(6-amino-2-pyridyl)sulfonyl]-2-[(2,4-dimethyl-3-pyridyl)oxy]-6-(3-fluoro-5-isobutoxy-phenyl)pyridine-3-carboxamide] | ++ (“++” means between 3 uM and 10 uM)
19 | COC[C@H]1C[C@@H]1c1ccc(C(=O)NS(=O)(=O)c2cccc(N)n2)c(N2C[C@@H](C)CC2(C)C)n1 [Compound 1575, N-[(6-amino-2-pyridyl)sulfonyl]-6-[(1S,2S)-2-(methoxymethyl)cyclopropyl]-2-[(4S)-2,2,4-trimethylpyrrolidin-1-yl]pyridine-3-carboxamide] | ++ (“++” means between 3 uM and 10 uM)
20 | CCOc1cccc2c1CN(Cc1ccc(C(C)C)cc1)C2(C)C(=O)NS(=O)(=O)c1cccc(N)n1 (stereo not shown) [Compound 1576, N-[(6-amino-2-pyridyl)sulfonyl]-4-ethoxy-2-[(4-isopropylphenyl)methyl]-1-methyl-isoindoline-1-carboxamide] | +++ (“+++” means <3 uM)
21 | C[C@@H]1CN(c2nc(C(C)(C)C)c(C3=CC4CCC3C4)cc2C(=O)NS(=O)(=O)c2cccc(N)n2)C(C)(C)C1 (stereo partly drawn) [Compound 1577, N-[(6-amino-2-pyridyl)sulfonyl]-5-(3-bicyclo[2.2.1]hept-2-enyl)-6-tert-butyl-2-[(4S)-2,2,4-trimethylpyrrolidin-1-yl]pyridine-3-carboxamide] | +++ (“+++” means <3 uM)
22 | CC(C)COc1cc(F)cc(-c2ccc(C(=O)NS(=O)(=O)c3cccc(N)n3)c(OCCC3CCOCC3)n2)c1 [Compound 1579, N-[(6-amino-2-pyridyl)sulfonyl]-6-(3-fluoro-5-isobutoxy-phenyl)-2-(2-tetrahydropyran-4-ylethoxy)pyridine-3-carboxamide] | +++ (“+++” means <3 uM)
23 | CC(C)COc1cc(F)cc(-c2ccc(C(=O)NS(=O)(=O)c3cccc(N)n3)c(OC3CCC3)n2)c1 [Compound 1580, N-[(6-amino-2-pyridyl)sulfonyl]-2-(cyclobutoxy)-6-(3-fluoro-5-isobutoxy-phenyl)pyridine-3-carboxamide] | +++ (“+++” means <3 uM)
24 | C[C@@H]1CN(c2nc(-c3cc(F)cc(OCC(C)(C)O)c3)ccc2C(=O)NS(=O)(=O)c2ccccc2)C(C)(C)C1 [Compound 1581, N-(benzenesulfonyl)-6-[3-fluoro-5-(2-hydroxy-2-methyl-propoxy)phenyl]-2-[(4S)-2,2,4-trimethylpyrrolidin-1-yl]pyridine-3-carboxamide] | +++ (“+++” means <3 uM)
25 | CCOc1cccc2c1CN(Cc1c(C)cc(C)cc1C)[C@@]2(C)C(=O)NS(=O)(=O)c1cccc(N)n1 [Compound 1582, (1R)—N-[(6-amino-2-pyridyl)sulfonyl]-4-ethoxy-1-methyl-2-[(2,4,6-trimethylphenyl)methyl]isoindoline-1-carboxamide] | +++ (“+++” means <3 uM)
26 | CCOc1cccc2c1CN(Cc1ccc(F)cc1)C2(C)C(=O)NS(=O)(=O)c1cccc(F)n1 (stereo not shown) [Compound 1583, 4-ethoxy-2-[(4-fluorophenyl)methyl]-N-[(6-fluoro-2-pyridyl)sulfonyl]-1-methyl-isoindoline-1-carboxamide] | ++ (“++” means between 3 uM and 10 uM)
27 | CCOc1cccc2c1CN(Cc1c(C)cc(C)cc1C)C2(C)C(=O)NS(=O)(=O)c1ccc(CC)c(N)c1 (stereo not shown) [Compound 1584, N-(3-amino-4-ethyl-phenyl)sulfonyl-4-ethoxy-1-methyl-2-[(2,4,6-trimethylphenyl)methyl]isoindoline-1-carboxamide] | +++ (“+++” means <3 uM)
28 | Cc1cc(C)c(Cn2nc(C(C)(C)C)cc2C(=O)NS(=O)(=O)c2ccncc2)c(C)c1 [Compound 1585, 5-tert-butyl-N-(4-pyridylsulfonyl)-2-[7(2,4,6-trimethylphenyl)methyl]pyrazole-3-carboxamide] | +++ (“+++” means <3 uM)
